Laboratory results as given in US6737383B1, “Herbicidal oxadiazolidines” (priority 1999, dated 2004).

How the values were obtained:
corn = assay: Test B pre/postemergence corn; assay type: in vivo, Zea mays
Outline: (§1)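 Test chemicals in a non-phytotoxic solvent mixture with surfactant were sprayed preemergence onto planted seeds and postemergence onto plants 2 to 18 cm tall (1- to 4-leaf stage). After twelve to sixteen days in a greenhouse, injury was visually rated against untreated controls from 0 (no effect) to 10 (complete control).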

soybean = assay: Test B pre/postemergence soybean; assay type: in vivo, Glycine max
Outline: as §1

giant foxtail = assay: Test B pre/postemergence giant foxtail; assay type: in vivo, Setaria faberii
Outline: as §1

bamyardgrass = assay: Test B flood test barnyardgrass; assay type: in vivo, Echinochloa crus-galli
Outline: (§2)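 Each value is a visual injury score relative to controls, with 10 meaning complete control and 0 no effect. Evaluation took place twelve to sixteen days after the 2-leaf-stage plants were treated and kept in the greenhouse.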

wheat = assay: Test B pre/postemergence wheat; assay type: in vivo, Triticum aestivum
Outline: as §1

velvetleaf = assay: Test B pre/postemergence velvetleaf; assay type: in vivo, Abutilon theophrasti
Outline: as §1

morningglory = assay: Test B pre/postemergence morningglory; assay type: in vivo, Ipomoea hederacea
Outline: as §1

crabgrass = assay: Test B pre/postemergence crabgrass; assay type: in vivo, Digitaria sanguinalis
Outline: as §1

purple nutsedge = assay: Test B pre/postemergence purple nutsedge; assay type: in vivo, Cyperus rotundus
Outline: as §1

cocklebur = assay: Test B pre/postemergence cocklebur; assay type: in vivo, Xanthium strumarium
Outline: as §1

smallflower flatsedge = assay: Test B flood test smallflower flatsedge; assay type: in vivo, Cyperus difformis
Outline: as §2

sugar beet = assay: Test B pre/postemergence sugar beet; assay type: in vivo, Beta vulgaris
Outline: as §1

surinam grass = assay: Test B pre/postemergence surinam grass; assay type: in vivo, Brachiaria decumbens
Outline: as §1

pigweed = assay: Test B pre/postemergence pigweed; assay type: in vivo, Amaranthus retroflexus
Outline: as §1

bedstraw = assay: Test B pre/postemergence bedstraw; assay type: in vivo, Galium aparine
Outline: as §1

blackgrass = assay: Test B pre/postemergence blackgrass; assay type: in vivo, Alopecurus myosuroides
Outline: as §1

duck salad = assay: Test B flood test duck salad; assay type: in vivo, Heteranthera limosa
Outline: as §2

rice = assay: Test B flood test rice; assay type: in vivo, Oryza sativa
Outline: as §2

wild oat = assay: Test B pre/postemergence wild oat; assay type: in vivo, Avena fatua
Outline: as §1

rape = assay: Test B pre/postemergence rape; assay type: in vivo, Brassica napus
Outline: as §1

[1] = Postemergence, Rate 62 g/ha, scale 0 to 10, 0 is no effect, 10 is complete control
[2] = Postemergence, Rate 125 g/ha, scale of 0 to 10 where 0 is no effect and 10 is complete control
[3] = Postemergence, Rate 250 g/ha, scale of 0 to 10, 0 is no effect, 10 is complete control
[4] = Postemergence, Rate 500 g/ha, scale of 0 to 10 where 0 is no effect and 10 is complete control
[5] = Preemergence, Rate 62 g/ha, scale 0 to 10 (0 no effect, 10 complete control)
[6] = Preemergence, Rate 125 g/ha, scale of 0 to 10 where 0 is no effect and 10 is complete control
[7] = Preemergence, Rate 250 g/ha, scale 0 to 10 (0 no effect, 10 complete control)
[8] = Preemergence, Rate 500 g/ha, scale of 0 to 10 where 0 is no effect and 10 is complete control
[9] = Rate 62 g/ha, flood test species, Pre-emergence, visual evaluation after twelve to sixteen days
[10] = Rate 125 g/ha, under heading Pre-emergence, flood test species, visual evaluation after twelve to sixteen days
[11] = Rate 250 g/ha, Pre-emergence (flood test species), scale 0 to 10, 0 is no effect, 10 is complete control
[12] = Rate 500 g/ha, Pre-emergence section of Table B, 0 to 10 scale (0 no effect, 10 complete control)

## COCCn1c(=O)on(C(=O)N(c2ccc(F)cc2F)C(C)C)c1=O [Compound 628]
corn; [1]
  Plant response rating, Corn: 0
corn; [2]
  Plant response rating, Corn: 6
corn; [3]
  Corn plant response rating: 7
corn; [4]
  Plant response rating, Corn: 7
corn; [5]
  Corn plant response rating: 3
corn; [6]
  Corn plant response rating: 6
corn; [7]
  Plant response rating, Corn: 7
corn; [8]
  Plant response rating, Corn: 9
soybean; [1]
  Plant response rating, Soybean: 4
soybean; [5]
  Soybean plant response rating: 0
soybean; [6]
  Soybean plant response rating: 0
soybean; [7]
  Plant response rating, Soybean: 4
soybean; [8]
  Plant response rating, Soybean: 7
Giant foxtail; [1]
  Plant response rating, Giant foxtail: 8
Giant foxtail; [2]
  Plant response rating, Giant foxtail: 9
Giant foxtail; [3]
  Giant foxtail plant response rating: 9
Giant foxtail; [4]
  Plant response rating, Giant foxtail: 9
Giant foxtail; [5]
  Giant foxtail plant response rating: 10
Giant foxtail; [6]
  Giant foxtail plant response rating: 10
Giant foxtail; [7]
  Plant response rating, Giant foxtail: 10
Giant foxtail; [8]
  Plant response rating, Giant foxtail: 10
bamyardgrass; [9]
  Plant response rating, Barnyardgrass (0 to 10 scale, 0 is no effect, 10 is complete control): 0
bamyardgrass; [10]
  Barnyardgrass plant response rating (0 to 10 scale, 0 is no effect, 10 is complete control): 0
bamyardgrass; [11]
  Barnyardgrass plant response rating: 0
bamyardgrass; [12]
  Barnyardgrass plant response rating: 0
wheat; [1]
  Plant response rating, Wheat: 0
wheat; [2]
  Plant response rating, Wheat: 4
wheat; [3]
  Wheat plant response rating: 7
wheat; [5]
  Wheat plant response rating: 3
wheat; [6]
  Wheat plant response rating: 3
wheat; [7]
  Plant response rating, Wheat: 7
wheat; [8]
  Plant response rating, Wheat: 10
velvetleaf; [1]
  Plant response rating, Velvetleaf: 6
velvetleaf; [2]
  Plant response rating, Velvetleaf: 6
velvetleaf; [3]
  Velvetleaf plant response rating: 8
velvetleaf; [5]
  Velvetleaf plant response rating: 7
velvetleaf; [7]
  Plant response rating, Velvetleaf: 9
velvetleaf; [8]
  Plant response rating, Velvetleaf: 10
morningglory; [1]
  Plant response rating, Morningglory: 1
morningglory; [2]
  Plant response rating, Morningglory: 2
morningglory; [3]
  Morningglory plant response rating: 2
morningglory; [4]
  Plant response rating, Morningglory: 2
morningglory; [5]
  Morningglory plant response rating: 5
morningglory; [6]
  Morningglory plant response rating: 5
morningglory; [7]
  Plant response rating, Morningglory: 5
morningglory; [8]
  Plant response rating, Morningglory: 7
crabgrass; [1]
  Plant response rating, Crabgrass: 8
crabgrass; [3]
  Crabgrass plant response rating: 9
crabgrass; [4]
  Plant response rating, Crabgrass: 9
crabgrass; [5]
  Crabgrass plant response rating: 8
crabgrass; [6]
  Crabgrass plant response rating: 8
crabgrass; [7]
  Plant response rating, Crabgrass: 9
crabgrass; [8]
  Plant response rating, Crabgrass: 10
Purple nutsedge; [1]
  Plant response rating, Nutsedge: 0
Purple nutsedge; [5]
  Nutsedge plant response rating: 3
Purple nutsedge; [6]
  Nutsedge plant response rating: 6
Purple nutsedge; [7]
  Plant response rating, Nutsedge: 6
Purple nutsedge; [8]
  Plant response rating, Nutsedge: 9
cocklebur; [1]
  Plant response rating, Cocklebur: 0
cocklebur; [2]
  Plant response rating, Cocklebur: 1
cocklebur; [3]
  Cocklebur plant response rating: 6
cocklebur; [4]
  Plant response rating, Cocklebur: 7
cocklebur; [5]
  Cocklebur plant response rating: 2
cocklebur; [6]
  Cocklebur plant response rating: 3
cocklebur; [7]
  Plant response rating, Cocklebur: 4
cocklebur; [8]
  Plant response rating, Cocklebur: 7
Smallflower flatsedge; [9]
  Plant response rating, S. Flatsedge (0 to 10 scale, 0 is no effect, 10 is complete control): 0
Smallflower flatsedge; [10]
  S. Flatsedge plant response rating (0 to 10 scale, 0 is no effect, 10 is complete control): 0
Smallflower flatsedge; [11]
  S. Flatsedge plant response rating: 0
Smallflower flatsedge; [12]
  S. Flatsedge plant response rating: 0
Sugar beet; [1]
  Plant response rating, Sugarbeets: 0
Sugar beet; [2]
  Plant response rating, Sugarbeets: 0
Sugar beet; [3]
  Sugarbeets plant response rating: 3
Sugar beet; [5]
  Sugarbeets plant response rating: 3
Sugar beet; [6]
  Sugarbeets plant response rating: 4
Sugar beet; [7]
  Plant response rating, Sugarbeets: 7
Sugar beet; [8]
  Plant response rating, Sugarbeets: 7
Surinam grass; [1]
  Plant response rating, B. signalgrass: 2
Surinam grass; [2]
  Plant response rating, B. signalgrass: 8
Surinam grass; [3]
  B. signalgrass plant response rating: 8
Surinam grass; [4]
  Plant response rating, B. signalgrass: 8
Surinam grass; [5]
  B. signalgrass plant response rating: 3
Surinam grass; [6]
  B. signalgrass plant response rating: 7
Surinam grass; [7]
  Plant response rating, B. signalgrass: 8
Surinam grass; [8]
  Plant response rating, B. signalgrass: 10
pigweed; [1]
  Plant response rating, Redroot pigweed: 3
pigweed; [2]
  Plant response rating, Redroot pigweed: 3
pigweed; [3]
  Redroot pigweed plant response rating: 7
pigweed; [5]
  Redroot pigweed plant response rating: 8
pigweed; [6]
  Redroot pigweed plant response rating: 9
pigweed; [7]
  Plant response rating, Redroot pigweed: 9
pigweed; [8]
  Plant response rating, Redroot pigweed: 10
bedstraw; [1]
  Plant response rating, Bedstraw: 0
bedstraw; [5]
  Bedstraw plant response rating: 6
bedstraw; [6]
  Bedstraw plant response rating: 7
bedstraw; [7]
  Plant response rating, Bedstraw: 10
bedstraw; [8]
  Plant response rating, Bedstraw: 10
blackgrass; [1]
  Plant response rating, Blackgrass: 6
blackgrass; [2]
  Plant response rating, Blackgrass: 8
blackgrass; [3]
  Blackgrass plant response rating: 9
blackgrass; [4]
  Plant response rating, Blackgrass: 9
blackgrass; [5]
  Blackgrass plant response rating: 6
blackgrass; [6]
  Blackgrass plant response rating: 9
blackgrass; [7]
  Plant response rating, Blackgrass: 10
blackgrass; [8]
  Plant response rating, Blackgrass: 10
Duck salad; [9]
  Plant response rating, Ducksalad (0 to 10 scale, 0 is no effect, 10 is complete control): 0
Duck salad; [10]
  Ducksalad plant response rating (0 to 10 scale, 0 is no effect, 10 is complete control): 0
Duck salad; [11]
  Ducksalad plant response rating: 0
Duck salad; [12]
  Ducksalad plant response rating: 0
rice; [9]
  Plant response rating, Rice (0 to 10 scale, 0 is no effect, 10 is complete control): 0
rice; [10]
  Rice plant response rating (0 to 10 scale, 0 is no effect, 10 is complete control): 0
rice; [11]
  Rice plant response rating: 0
rice; [12]
  Rice plant response rating: 0
Wild oat; [1]
  Plant response rating, Wild oats: 0
Wild oat; [2]
  Plant response rating, Wild oats: 3
Wild oat; [3]
  Wild oats plant response rating: 5
Wild oat; [6]
  Wild oats plant response rating: 2
Wild oat; [7]
  Plant response rating, Wild oats: 8
Wild oat; [8]
  Plant response rating, Wild oats: 10
rape; [1]
  Plant response rating, Rape: 0
rape; [2]
  Plant response rating, Rape: 0
rape; [3]
  Rape plant response rating: 3
rape; [4]
  Plant response rating, Rape: 6
rape; [5]
  Rape plant response rating: 0
rape; [6]
  Rape plant response rating: 2
rape; [7]
  Plant response rating, Rape: 4
rape; [8]
  Plant response rating, Rape: 9
